Reference: patent publication US20190160131A1, “METHOD FOR CELL REJUVENATION USING ROSA ROXBURGHII FRUIT EXTRACTS” (TCI CO., LTD, priority 2017, published 2019)

System: human skin fibroblast CCD-966SK
Assay: Chemical (etoposide)-induced telomere shortening, telomere length by qPCR
Format: cell-based
Details: 30 μM etoposide only, 5 days of incubation, compared to control cells (FIG. 8)
Experimental: Telomere length is determined based on qPCR technique. First, genomic DNA samples were extracted from cells. Next, the genomic DNA samples (20 ng) were subjected to qPCR to obtain melting curves. The qPCR was performed with a PCR thermocycler using KAPA CYBR FAST qPCR Kit (2×) (KAPA Biosystems) and primers of the telomere and the single-copy 36B4 gene (Table 2). In addition, serially diluted standards of the telomere (10- to 10^6-fold dilutions starting from 60 pg) and the 36B4 gene (10- to 10^6-fold dilutions starting from 200 pg) were prepared and subjected to qPCR under the following reaction conditions to obtain standard curves (Ct/kb): a denaturation phase at 95° C. for 10 minutes followed by 40 cycles of denaturation (95° C.) for 15 seconds and annealing (60° C.) for 1 minute. The telomere standard was an oligonucleotide having 14 repeats of TTAGGG (SEQ ID NO: 7); the standard of 36B4 gene had the nucleotide sequence of SEQ ID NO:8. Lastly, the average length of telomere in the genomic DNA samples was determined from the aforementioned standard curves and the cycle threshold values of telomere and 36B4 gene in the genomic DNA samples.
The protective effect of Rosa roxburghii fruit water extract on chromosomal telomere was investigated in human skin fibroblast CCD-966SK. […]

Compound: COc1cc([C@@H]2c3cc4c(cc3[C@@H](O[C@@H]3O[C@@H]5CO[C@@H](C)O[C@H]5[C@H](O)[C@H]3O)[C@H]3COC(=O)[C@H]23)OCO4)cc(OC)c1O [etoposide]
- relative length of telomeres: significantly shortened
